Series [1] is described as follows: Singlet oxygen (1O2) production rate. It counts as physicochemical. An excerpt:
The production of singlet oxygen (^1O2), cellular phototoxicity and light-independent cytotoxicity (“dark toxicity”) of a number of phyllochlorin analogues were compared against chlorin e4 disodium and Talaporfin sodium (mono-L-aspartyl chlorin e6), the active ingredient of Laserphyrin™.

Series [2] relates to SKOV3 ovarian cancer cells. The series can be described thus: Phototoxicity in SKOV3 cells (652 nm laser, AlamarBlue viability). It counts as cell-based, Human. How it is done: (§1) Human ovarian cancer cell line SKOV3 (ATCC #HTB-77) was maintained in Dulbecco's Modified Eagle Medium/Nutrient Mixture F-12 (DMEM/F-12), supplemented with 10% v/v Fetal Bovine Serum, 100 U/mL penicillin and 100 µg/mL streptomycin. Monolayer cultures were grown in a humidified incubator at 37° C. with 5% CO2.
(§2) For in vitro experiments, photosensitizers (stock solution 5.5 mM in 100% DMSO) were diluted in cell culture media (Dulbecco's Modified Eagle Medium/Nutrient Mixture F-12) supplemented with 10% v/v Fetal Bovine Serum, 100 U/mL penicillin, 100 µg/mL streptomycin and 10% w/v Kollidon-12. Once cells had reached ˜80% confluence, spent media was replaced with media containing photosensitizer and cells were incubated for the desired period of time to allow photosensitizer uptake.
SKOV3 cells were seeded in 96-well black wall plates (Greiner #655090) at a cell density of 5000 cells in 100 μl culture medium per well. On reaching ˜60% confluence, so media was aspirated and replaced with fresh media containing the relevant phyllochlorin analogue from 0-100 μM in DMSO. Cells were incubated for a further 24 hours, allowing uptake of phyllochlorin analogues.
To test for phototoxicity, cells incubated with phyllochlorin analogues (0-10 μM in DMSO) had culture media replaced after 24 hours (as above) and were then exposed to a 652 nm laser (Invion) with laser density at 50 mW/cm^2 for 5 mins (total 15 J/cm^2). Following activation, cells were cultured for a further 24 hours. Media was then replaced with fresh media containing AlamarBlue, and % viable cells remaining assessed as above. Controls included cells treated with phyllochlorin analogues but not activated by laser light; cells without phyllochlorin analogue treatment but with laser light; and untreated controls. All measurements were made in quadruplicate.
(§3) For comparative purposes, phyllochlorin analogues were tested and compared against both chlorin e4 disodium and Talaporfin sodium, a clinically approved photosensitizer used in the photodynamic treatment of lung cancers. Phototoxicity IC90 values and dark toxicity IC10 values were calculated using a log[inhibitor]-vs normalized response dose curve with variable slope, using the formula Y=100/(1+(IC90/X)^HillSlope (phototoxicity IC90) or Y=100/(1+(IC10/X)^HillSlope (dark toxicity IC10).

Series [3] concerns SKOV3 ovarian cancer cells. The series can be described thus: Inherent cytotoxicity (dark toxicity) in SKOV3 cells (AlamarBlue viability). The series is classed as cell-based, Human. Conditions: human, 24 h. The protocol:
as §1, §2
SKOV3 cells were seeded in 96-well black wall plates (Greiner #655090) at a cell density of 5000 cells in 100 μl culture medium per well. On reaching ˜60% confluence, media was aspirated and replaced with fresh media containing the relevant phyllochlorin analogue from 0-100 μM in DMSO. Cells were incubated for a further 24 hours, allowing uptake of phyllochlorin analogues.
To test for inherent cytotoxicity (i.e. “dark toxicity”) of the phyllochlorin analogue the culture media was replaced after 24 hours with fresh media containing 10% (v/v) AlamarBlue Cell Viability Reagent (ThermoFisher) and cells incubated at 37° C. for 6 hours. Untreated cells were used as a control. Fluorescence (Ex 555 nm/Em 596 nm) was measured using a Cytation 3 Multimode Plate Reader (Biotek), and cytotoxicity assessed according to the % viable cells remaining. All measurements were made in quadruplicate.
as §3
For orientation: Resazurin is reduced to fluorescent resorufin, in cell work by metabolically active cells.

Where [4] appears, read: Homo sapiens, SK-OV-3, light or radiation study, SKOV3, 24 h uptake, 652 nm laser 50 mW/cm2 5 mins (15 J/cm2), viability 24 h later, read-out: Cellular Toxicity: Phototoxicity IC90.
The mark [5] stands for this setting: Homo sapiens, SK-OV-3, light or radiation study, read-out: Cellular Toxicity: Phototoxicity IC90, SKOV3, 24 h uptake, 652 nm laser 50 mW/cm2 5 mins (15 J/cm2), viability 24 h later.

Each structure is given as a SMILES string. Structures can show the parent of a compound that is named as a salt. Where two headings read alike, the source gives them in different places. Some results are limits rather than exact numbers.

Consider `C=Cc1c(C)c2cc3nc(c(C)c4cc(C)c(cc5nc(cc1[nH]2)C(C)=C5CC)[nH]4)[C@@H](CCC(=O)N(C)CCCS[C@H]1O[C@H](CO)[C@@H](O)[C@H](O)[C@@H]1O)[C@@H]3C` [Compound 16, phyllochlorin α-D-1-thiomannose-N-methylpropylamide conjugate], for which, in series [1], the “Singlet Oxygen Production (slope) 1O2” value came out at 884.1. Further, the IC90 in series [2] (setting [4]) turned out to be 250 nM. Also, the “Cellular Toxicity: Dark toxicity IC10” value in series [3] came to 28640 nM.
Taken in the same sequence, the figures for `C=Cc1c(C)c2cc3nc(c(C)c4cc(C)c(cc5nc(cc1[nH]2)C(C)=C5CC)[nH]4)[C@@H](CCC(=O)N(C)CCCO[C@@H]1O[C@H](CO)[C@@H](O)[C@H](O)[C@H]1O)[C@@H]3C` [Compound 15, 3-((7S,8S)-18-ethyl-2,5,8,12,17-pentamethyl-13-vinyl-7H,8H-porphyrin-7-yl)-N-methyl-N-(3-(((2R,3R,4S,5S,6R)-3,4,5-trihydroxy-6-(hydroxymethyl)tetrahydro-2H-pyran-2-yl)oxy)propyl)propanamide] were 976.4, 230 nM and 14600 nM.
As for `C=Cc1c(C)c2cc3nc(c(C)c4cc(C)c(cc5nc(cc1[nH]2)C(C)=C5CC)[nH]4)[C@@H](CCC(=O)N(C)CCCS[C@@H]1O[C@H](COC(=O)[C@@H](N)C(C)C)[C@@H](O)[C@H](O)[C@H]1O)[C@@H]3C` [Compound 12, ((2R,3S,4S,5R,6S)-6-((3-(3-((7S,8S)-18-ethyl-2,5,8,12,17-pentamethyl-13-vinyl-7H,8H-porphyrin-7-yl)-N-methylpropanamido)propyl)thio)-3,4,5-trihydroxytetrahydro-2H-pyran-2-yl)methyl L-valinate hydrochloride], the “Singlet Oxygen Production (slope) 1O2” value in series [1] was found to be 1121.0. In addition, the 90% effect concentration (IC90) in series [2] (setting [5]) was 180 nM. The “Cellular Toxicity: Dark toxicity IC10” value in series [3] was determined as 28360 nM.
As to `C=Cc1c(C)c2cc3nc(c(C)c4cc(C)c(cc5nc(cc1[nH]2)C(C)=C5CC)[nH]4)[C@@H](CCC(=O)N[C@H]1C(O)O[C@H](CO)[C@@H](O)[C@@H]1O)[C@@H]3C` (some centres unmarked) [Compound 13, phyllochlorin 2-deoxyglucosamine-propylamide], the “Singlet Oxygen Production (slope) 1O2” value in series [1] was found to be 1423.0. Also, the IC90 in series [2] (setting [5]) stood at 120 nM. For the same molecule, the “Cellular Toxicity: Dark toxicity IC10” value in series [3] was determined as 13020 nM.
Turning to `C=Cc1c(C)c2cc3nc(c(C)c4cc(C)c(cc5nc(cc1[nH]2)C(C)=C5CC)[nH]4)[C@@H](CCC(=O)NCCOCCO[C@@H]1O[C@H](CO)[C@@H](O)[C@H](O)[C@H]1O)[C@@H]3C` [Compound 20, 3-((7S,8S)-18-ethyl-2,5,8,12,17-pentamethyl-13-vinyl-7H,8H-porphyrin-7-yl)-N-(2-(2-(((2R,3R,4S,5S,6R)-3,4,5-trihydroxy-6-(hydroxymethyl)tetrahydro-2H-pyran-2-yl)oxy)ethoxy)ethyl)propanamide], in series [1], the “Singlet Oxygen Production (slope) 1O2” value is listed as 1210.0. Also, in series [2] (setting [4]), the IC90 came out at 230 nM. For the same molecule, the “Cellular Toxicity: Dark toxicity IC10” value in series [3] is 46230 nM.
For the molecule `C=Cc1c(C)c2cc3nc(c(C)c4cc(C)c(cc5nc(cc1[nH]2)C(C)=C5CC)[nH]4)[C@@H](CCC(=O)N(C)CCCS[C@@H]1O[C@H](CO)[C@@H](O)[C@H](O)[C@@H]1O)[C@@H]3C` [Compound 17, phyllochlorin β-D-1-thiomannose-N-methylpropylamide conjugate], the “Singlet Oxygen Production (slope) 1O2” value in series [1] came to 1265.0. Besides, the concentration for an effect of 90% (IC90) in series [2] (setting [4]) was 220 nM. For the same molecule, in series [3], the “Cellular Toxicity: Dark toxicity IC10” value turned out to be 76270 nM.
Taken in the same sequence, the figures for `C=Cc1c(C)c2cc3nc(c(CC(=O)N[C@@H](CC(=O)O)C(=O)O)c4[nH]c(cc5nc(cc1[nH]2)C(C)=C5CC)c(C)c4C(=O)O)[C@@H](CCC(=O)O)[C@@H]3C` [Talaporfin sodium, mono-L-aspartyl chlorin e6, reference compound] were 736.7, 22800 nM and 11100 nM.
For the molecule `C=Cc1c(C)c2cc3nc(c(C)c4cc(C)c(cc5nc(cc1[nH]2)C(C)=C5CC)[nH]4)[C@@H](CCC(=O)O)[C@@H]3C` [Compound 1d, phyllochlorin arginine salt], the “Singlet Oxygen Production (slope) 1O2” value in series [1] was found to be 833.9. Besides, the IC90 in series [2] (read-out: Cellular Toxicity: Phototoxicity IC90, SKOV3, 24 h uptake, 652 nm laser 50 mW/cm2 5 mins (15 J/cm2), viability 24 h later) came out at 1420 nM. Further, in series [3], the “Cellular Toxicity: Dark toxicity IC10” value turned out to be 18150 nM.
Turning to `C=Cc1c(C)c2cc3nc(c(C)c4cc(C)c(cc5nc(cc1[nH]2)C(C)=C5CC)[nH]4)[C@@H](CCC(=O)N(C)CCCCCS[C@@H]1O[C@H](CO)[C@@H](O)[C@H](O)[C@H]1O)[C@@H]3C` [Compound 8, 3-((7S,8S)-18-ethyl-2,5,8,12,17-pentamethyl-13-vinyl-7H,8H-porphyrin-7-yl)-N-methyl-N-(5-(((2S,3R,4S,5S,6R)-3,4,5-trihydroxy-6-(hydroxymethyl)tetrahydro-2H-pyran-2-yl)thio)pentyl)propanamide], in series [1], the “Singlet Oxygen Production (slope) 1O2” value amounted to 1314.0. In addition, the 90% effect concentration (IC90) in series [2] (setting [4]) is 60 nM; in series [2] (Homo sapiens, SK-OV-3, light or radiation study, SKOV3, read-out: Phototoxicity apparent IC90) it was below 100 nM. Further, the “Fold increase in cellular phototoxicity compared to compound 2” value in series [2] (SKOV3, IC90) is “approximately 4 fold”. For the same molecule, the “Cellular Toxicity: Dark toxicity IC10” value in series [3] was found to be 12550 nM.
As for `C=Cc1c(C)c2cc3nc(c(C)c4cc(C)c(cc5nc(cc1[nH]2)C(C)=C5CC)[nH]4)[C@@H](CCC(=O)N(C)CCOCCO[C@@H]1O[C@H](CO)[C@@H](O)[C@H](O)[C@H]1O)[C@@H]3C` [Compound 14, 3-((7S,8S)-18-ethyl-2,5,8,12,17-pentamethyl-13-vinyl-7H,8H-porphyrin-7-yl)-N-methyl-N-(2-(2-(((2R,3R,4S,5S,6R)-3,4,5-trihydroxy-6-(hydroxymethyl)tetrahydro-2H-pyran-2-yl)oxy)ethoxy)ethyl)propanamide], the “Singlet Oxygen Production (slope) 1O2” value in series [1] was 1293.0. Moreover, the IC90 in series [2] (setting [4]) turned out to be 170 nM. Also, the “Cellular Toxicity: Dark toxicity IC10” value in series [3] amounted to 22790 nM.
Take `C=Cc1c(C)c2cc3nc(c(C)c4cc(C)c(cc5nc(cc1[nH]2)C(C)=C5CC)[nH]4)[C@@H](CCC(=O)N(C)CCC[S+]([O-])[C@@H]1O[C@H](CO)[C@@H](O)[C@H](O)[C@H]1O)[C@@H]3C` (stereo partly drawn) [Compound 9, 3-((7S,8S)-18-ethyl-2,5,8,12,17-pentamethyl-13-vinyl-7H,8H-porphyrin-7-yl)-N-methyl-N-(3-(((2S,3R,4S,5S,6R)-3,4,5-trihydroxy-6-(hydroxymethyl)tetrahydro-2H-pyran-2-yl)thio)propyl)propanamide sulphoxide]: in series [1], the “Singlet Oxygen Production (slope) 1O2” value was found to be 1396.0. Further, in series [2] (setting [5]), the 90% effect concentration (IC90) came out at 190 nM. Further, the “Cellular Toxicity: Dark toxicity IC10” value in series [3] worked out at 70240 nM.
Regarding `C=Cc1c(C)c2cc3nc(c(C)c4cc(C)c(cc5nc(cc1[nH]2)C(C)=C5CC)[nH]4)[C@@H](CCC(=O)N(C)CCOCCO)[C@@H]3C` [Compound 18, 3-((7S,8S)-18-ethyl-2,5,8,12,17-pentamethyl-13-vinyl-7H,8H-porphyrin-7-yl)-N-(2-(2-hydroxyethoxy)ethyl)-N-methylpropanamide], in series [1], the “Singlet Oxygen Production (slope) 1O2” value is reported as 1060.0. Moreover, in series [2] (setting [4]), the IC90 was 100 nM. Also, the “Cellular Toxicity: Dark toxicity IC10” value in series [3] came to 32300 nM.
As for `C=Cc1c(C)c2cc3nc(c(C)c4cc(C)c(cc5nc(cc1[nH]2)C(C)=C5CC)[nH]4)[C@@H](CCC(=O)N(C)CCOCCOCCO)[C@@H]3C` [Compound 4, 3-((7S,8S)-18-ethyl-2,5,8,12,17-pentamethyl-13-vinyl-7H,8H-porphyrin-7-yl)-N-(2-(2-(2-hydroxyethoxy)ethoxy)ethyl)-N-methylpropanamide], the “Singlet Oxygen Production (slope) 1O2” value in series [1] was determined as 2191.0. In addition, in series [2] (setting [4]), the concentration for an effect of 90% (IC90) turned out to be 120 nM. Moreover, in series [3], the “Cellular Toxicity: Dark toxicity IC10” value stood at 16410 nM.

What is called IC90 is the concentration at which the effect reaches the 90% level.
